Measurements taken from patent US6265551A, “Form of dipeptidylpeptidase IV (CD26) found in human serum, antibodies thereto, and uses thereof” (Dana-Farber Cancer Institute, Inc., priority 1996, dated 2001).
pIC50: −log10 of the molar value. Where a SMILES comes first, the peptide text is derived from it. The star is where a group is joined. pNA = O=[N+]([O-])c1ccc(N*)cc1

How the values were obtained:
[1] = tested on: serum DPPIV (soluble 175 kDa form of DPPIV/CD26, DPPT-L) purified from normal human serum; assay: DPPIV enzyme activity: Gly-Pro-pNA hydrolysis, Michaelis-Menten kinetics and inhibition; type: biochemical
Procedure: The DPPIV enzyme activities of the rsCD26 and serum DPPIV were analyzed by Michaelis-Menten kinetics by assessing kinetics of hydrolysis of substrate at different concentrations. […] To further exclude the possibility that we had purified irrelevant aminopeptidases which, working in concert or by sequential hydrolysis, could release the pNA chromophore from substrate, we tested a number of substrates which could be hydrolyzed by non-DPPIV aminopeptidases. One candidate for sequential hydrolysis is aminopeptidase M (3.4.11.2), but no hydrolysis of Ala-pNA, Arg-pNA or Leu-pNA was observed and activity by aminopolypeptidase (3.4.11.14) may be similarly excluded. The substrate succinyl-Gly-Pro-pNA was also not hydrolyzed. The only substrate apart from the dipeptide chromatogen Gly-Pro-pNA which could be hydrolyzed was Val-Ala-pNA, which was cleaved by both the serum DPPIV and rsCD26 (relative to rate of hydrolysis of Gly-Pro-pNA, hydrolysis of Val-Ala-pNA was 0.098 and 0.079, for rsCD26 and serum DPPIV, respectively). Although DPPIV primarily hydrolyses dipeptides with a proline in the penultimate position, it is well documented that alanine in the penultimate position may also render a dipeptide sequence susceptible to cleavage by DPPIV (8). […]
DPPIV activity: The primary substrate used for determining DPPIV activity in all assays was Gly-Pro-p-nitroanilide (Gly-Pro-pNA; Sigma), which is hydrolyzed by DPPIV to release pNA absorbing strongly at 405 nm. […] Inhibition of the hydrolysis of Gly-Pro-pNA was determined in the presence of the specific DPPIV inhibitor Diprotin A (Bachem, King of Prussia, Pa.). […] The pH optimum was determined substituting phosphate buffer (100 mM, pH4.5-pH9) in place of standard incubation buffer.
Serum DPPIV: Serum DPPIV was prepared by isolating from 100 ml of pooled normal human male AB serum the fraction of protein precipitated by 50-70% saturated ammonium sulfate. […] The DPPIV activity was eluted by a 0-0.5M NaCl gradient in equilibration buffer and all DPPIV activity was found in the 10 mM-50 mM NaCl eluate (determined by conductance). […]

[2] = target: recombinant soluble CD26 (rsCD26), full extracellular domain of human T cell membrane CD26/DPPIV, 105 kDa form, from transfected CHO cells (Homo sapiens, UniProt P27487); assay: as above; details: U = enzyme cleaving 1 mmol Gly-Pro-pNA/min at pH7.6 and 20° C.
Sequence of recombinant soluble CD26 (rsCD26), full extracellular domain of human T cell membrane CD26/DPPIV, 105 kDa form, from transfected CHO cells (P27487 29-766 limits assumed): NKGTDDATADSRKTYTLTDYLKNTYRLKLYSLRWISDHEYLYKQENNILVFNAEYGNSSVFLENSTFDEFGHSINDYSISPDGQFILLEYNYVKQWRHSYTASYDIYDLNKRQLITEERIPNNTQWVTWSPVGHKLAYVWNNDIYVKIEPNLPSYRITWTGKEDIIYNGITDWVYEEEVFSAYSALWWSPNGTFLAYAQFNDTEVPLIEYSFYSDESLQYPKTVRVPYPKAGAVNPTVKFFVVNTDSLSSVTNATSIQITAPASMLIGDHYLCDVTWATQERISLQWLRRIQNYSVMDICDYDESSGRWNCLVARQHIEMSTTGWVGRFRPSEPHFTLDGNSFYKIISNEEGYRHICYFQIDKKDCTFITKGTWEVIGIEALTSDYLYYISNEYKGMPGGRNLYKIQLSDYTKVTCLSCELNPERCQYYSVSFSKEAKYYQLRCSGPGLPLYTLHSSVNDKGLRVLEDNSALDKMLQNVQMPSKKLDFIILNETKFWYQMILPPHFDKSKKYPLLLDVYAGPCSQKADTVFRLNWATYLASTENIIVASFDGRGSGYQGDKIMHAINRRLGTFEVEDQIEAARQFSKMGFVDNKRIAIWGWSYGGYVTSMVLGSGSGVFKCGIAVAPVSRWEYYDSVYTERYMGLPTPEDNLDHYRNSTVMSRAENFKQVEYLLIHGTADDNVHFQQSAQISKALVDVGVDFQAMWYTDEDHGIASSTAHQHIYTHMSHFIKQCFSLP
Procedure: DPPIV activity: The primary substrate used for determining DPPIV activity in all assays was Gly-Pro-p-nitroanilide (Gly-Pro-pNA; Sigma), which is hydrolyzed by DPPIV to release pNA absorbing strongly at 405 nm. Kinetic assays were performed using varying amounts of substrate in order to obtain estimates of the Km and Vmax using standard Michaelis-Menten kinetics. For screening assays of DPPIV activity, 150 ml of substrate was used at 1 mg/ml (2 mM final concentration) in phosphate buffer (pH7.6, 100 mM) in 96 well flat-bottomed microtiter plates together with 10 ml of appropriately diluted sample. For samples obtained after elution from the s-Sepharose column, the pH was raised to pH7.6 by addition of 25 μl of 1M Tris-HCl, pH7.6 to the reaction mixture. One unit (U) of enzyme activity was defined as the amount of enzyme that cleaved 1 mmol of Gly-Pro-pNA/min at pH7.6 and 20° C. […] The pH optimum was determined substituting phosphate buffer (100 mM, pH4.5-pH9) in place of standard incubation buffer.

SMILES	Km ([1]; Lineweaver-Burke transformation, substrate at different concentrations)	Vmax, Gly-Pro-pNA as substrate ([1]; U = enzyme cleaving 1 mmol Gly-Pro-pNA/min at pH7.6 and 20° C.)	Vmax, Gly-Pro-pNA as substrate [2]	pIC50 ([1]; read-out: IC50 (Diprotin A), inhibition of the hydrolysis of Gly-Pro-pNA)
NCC(=O)N1CCC[C@H]1C(=O)Nc1ccc([N+](=O)[O-])cc1 [Gly-Pro-pNA, Gly-Pro-p-nitroanilide] (H-Gly-Pro-pNA)	280 µM	0.65 U/nmol serum DPPIV	1.52 U/nmol rsCD26	
CC[C@H](C)[C@H](N)C(=O)N1CCC[C@H]1C(=O)N[C@H](C(=O)O)[C@@H](C)CC [Diprotin A]				3.60
